Patent US8524736B2, “Stereoisomeric compounds and methods for the treatment of gastrointestinal and central nervous system disorders” (Armetheon, Inc., priority 2004, dated 2013)

Tests used:
human 5-HT4 receptor = molecular target: T1, human 5-HT4 receptor (Homo sapiens, UniProt Q13639); experiment: adenylyl cyclase stimulation in cells stably expressing human 5-HT4 receptor; type: cell-based; conditions: negative logarithm of the EC50
T1 construct: expressed in transfected cells

fasted, conscious dogs = experiment: gastric, small intestinal and colonic motor activity in fasted, conscious dogs; conditions: for prokinetic effects in the dog gut: IV and PO; for effect on migrating motor complex (MMC) characteristics: antrum, proximal, mid and distal small intestine
fed dogs = experiment: gastric emptying in fed conscious dogs (time of MMC return); type: in vivo, dog; conditions: IV infusion over 20 minutes before a solid meal; FIG. 2
[1] = metabolism by esterases in human plasma
[2] = system: isolated, perfused guinea pig hearts
5-HT4 Receptor = molecular target: T2, 5-HT4 Receptor (Cavia porcellus, UniProt O70528); experiment: 5-HT4 Receptor Binding, Guinea Pig Striatum, [3H]GR113808; conditions: versus ATI-7500
T2 construct: Guinea Pig Striatum; from tissue; host or cells: guinea pig striatum

CYP450 2D6 = CYP450 2D6 (Homo sapiens, UniProt P10635); conditions: recombinant enzyme
Chain of CYP450 2D6 (P10635 whole entry): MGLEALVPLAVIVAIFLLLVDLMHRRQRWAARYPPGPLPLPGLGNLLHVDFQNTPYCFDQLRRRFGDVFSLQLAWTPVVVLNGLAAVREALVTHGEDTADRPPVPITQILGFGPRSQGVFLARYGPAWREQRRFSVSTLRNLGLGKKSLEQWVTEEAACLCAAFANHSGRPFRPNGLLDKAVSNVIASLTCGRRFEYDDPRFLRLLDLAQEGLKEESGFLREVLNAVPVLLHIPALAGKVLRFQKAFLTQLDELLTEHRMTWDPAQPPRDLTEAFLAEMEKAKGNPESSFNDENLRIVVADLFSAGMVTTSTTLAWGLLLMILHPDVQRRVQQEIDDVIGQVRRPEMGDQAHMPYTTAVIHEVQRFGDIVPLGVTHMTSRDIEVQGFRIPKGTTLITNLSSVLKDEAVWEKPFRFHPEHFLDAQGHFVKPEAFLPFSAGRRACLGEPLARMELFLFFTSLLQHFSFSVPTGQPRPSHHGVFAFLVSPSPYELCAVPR

T1 sequence (Q13639 whole entry): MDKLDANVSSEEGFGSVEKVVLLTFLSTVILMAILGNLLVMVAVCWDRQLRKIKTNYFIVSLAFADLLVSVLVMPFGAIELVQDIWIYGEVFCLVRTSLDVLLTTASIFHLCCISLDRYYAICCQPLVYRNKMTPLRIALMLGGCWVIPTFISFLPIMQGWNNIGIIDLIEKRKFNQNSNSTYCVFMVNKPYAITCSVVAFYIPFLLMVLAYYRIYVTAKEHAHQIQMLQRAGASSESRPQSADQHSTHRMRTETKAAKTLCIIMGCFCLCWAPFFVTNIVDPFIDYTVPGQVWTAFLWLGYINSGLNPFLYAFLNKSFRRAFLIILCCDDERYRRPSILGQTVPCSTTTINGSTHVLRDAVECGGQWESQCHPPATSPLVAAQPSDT
T2 sequence (O70528 whole entry): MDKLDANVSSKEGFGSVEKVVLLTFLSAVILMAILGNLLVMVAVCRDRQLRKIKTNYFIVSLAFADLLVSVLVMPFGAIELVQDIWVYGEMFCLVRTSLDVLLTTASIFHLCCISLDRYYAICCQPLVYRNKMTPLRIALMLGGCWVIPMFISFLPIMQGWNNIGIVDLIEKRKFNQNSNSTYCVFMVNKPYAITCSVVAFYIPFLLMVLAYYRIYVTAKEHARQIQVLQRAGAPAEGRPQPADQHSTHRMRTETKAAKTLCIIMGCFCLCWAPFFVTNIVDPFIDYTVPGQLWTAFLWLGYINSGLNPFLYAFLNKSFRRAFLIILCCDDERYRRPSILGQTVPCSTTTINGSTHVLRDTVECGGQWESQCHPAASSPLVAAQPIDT

inhibitory activity against CYP450 2D6 (CYP450 2D6)	Compound	Potency pEC50 (human 5-HT4 receptor)	prokinetic effects in the dog gut (fasted, conscious dogs)	side effects such as diarrhea, anorexia, or weight loss (fasted, conscious dogs; IV and PO doses, dogs)	MMC frequency in the proximal small intestine relative to controls (fasted, conscious dogs; PO)	effect on migrating motor complex (MMC) characteristics (fasted, conscious dogs)	antral and small bowel contractility (fasted, conscious dogs; fasted dogs)	colonic motor activity (fasted, conscious dogs; fasted dogs)	development of retrograde giant migrating contractions (fasted, conscious dogs; fasted dogs)	time of MMC return (index of gastric emptying) (fed dogs)	metabolism by esterases in human plasma [1]	modulation of cardiac electrophysiologic parameters [2]	affinity for the 5-HT4 receptor, fold greater than ATI-7500 (5-HT4 Receptor)
–	COc1cc(N)c(Cl)cc1C(=O)N[C@@H]1CCN(CCCCCC(=O)O)C[C@@H]1OC [ATI-7500, 6-((3S,4R)-4-(4-amino-5-chloro-2-methoxybenzamido)-3-methoxypiperidin-1-yl)hexanoic acid]	6.40	–	–	–	–	–	–	–	–	–	–	–
–	COc1cc(N)c(Cl)cc1C(=O)N[C@@H]1CCN(CCCCCC(=O)O[C@H]2CN3CCC2CC3)C[C@@H]1OC [ATI-7505, 6-[4R-(4-amino-5-chloro-2-methoxy-benzoylamino)-3S-methoxy-piperidin-1-yl]-hexanoic acid 1-aza-bicyclo[2.2.2]oct-3′R-yl ester]	8.45	caused prokinetic effects	exhibited no side effects	increased MMC frequency	minimal effect	dose-dependent stimulation of antral and small bowel contractility	relatively little effect on colonic motor activity	not associated with the development of retrograde giant migrating contractions	significantly shortened the time of MMC return	rapidly metabolized by esterases in human plasma	very weak modulator of cardiac electrophysiologic parameters	at least 360 fold
significant inhibitory activity	COc1cc(N)c(Cl)cc1C(=O)NC1CCN(CCCOc2ccc(F)cc2)CC1OC (stereo not drawn) [Cisapride, reference compound]	–	caused prokinetic effects	–	–	minimal effect	dose-dependent stimulation of antral and small bowel contractility	relatively little effect on colonic motor activity	–	–	–	–	–
